Laboratory results published in article PMC9046087, “Structural basis of tethered agonism of the adhesion GPCRs ADGRD1 and ADGRF1” (Nature, 2022).
pEC50: −log10 of the molar value. Ends that are not written are not given here.

Assays:
Assay in all cases: BRET assay using TRUPATH biosensors, Gi activation of ADGRF1
Format in all cases: cell-based
ADGRF1 [1] = target: T1, ADGRF1 (Homo sapiens, UniProt Q5T601, F672A); conditions: ADGRF1 F672^3.44bA
T1 construct: Flag (N); expressed in transfected cells; host or cells: HEK293F
T1 sequence (Q5T601 20-910 F672A): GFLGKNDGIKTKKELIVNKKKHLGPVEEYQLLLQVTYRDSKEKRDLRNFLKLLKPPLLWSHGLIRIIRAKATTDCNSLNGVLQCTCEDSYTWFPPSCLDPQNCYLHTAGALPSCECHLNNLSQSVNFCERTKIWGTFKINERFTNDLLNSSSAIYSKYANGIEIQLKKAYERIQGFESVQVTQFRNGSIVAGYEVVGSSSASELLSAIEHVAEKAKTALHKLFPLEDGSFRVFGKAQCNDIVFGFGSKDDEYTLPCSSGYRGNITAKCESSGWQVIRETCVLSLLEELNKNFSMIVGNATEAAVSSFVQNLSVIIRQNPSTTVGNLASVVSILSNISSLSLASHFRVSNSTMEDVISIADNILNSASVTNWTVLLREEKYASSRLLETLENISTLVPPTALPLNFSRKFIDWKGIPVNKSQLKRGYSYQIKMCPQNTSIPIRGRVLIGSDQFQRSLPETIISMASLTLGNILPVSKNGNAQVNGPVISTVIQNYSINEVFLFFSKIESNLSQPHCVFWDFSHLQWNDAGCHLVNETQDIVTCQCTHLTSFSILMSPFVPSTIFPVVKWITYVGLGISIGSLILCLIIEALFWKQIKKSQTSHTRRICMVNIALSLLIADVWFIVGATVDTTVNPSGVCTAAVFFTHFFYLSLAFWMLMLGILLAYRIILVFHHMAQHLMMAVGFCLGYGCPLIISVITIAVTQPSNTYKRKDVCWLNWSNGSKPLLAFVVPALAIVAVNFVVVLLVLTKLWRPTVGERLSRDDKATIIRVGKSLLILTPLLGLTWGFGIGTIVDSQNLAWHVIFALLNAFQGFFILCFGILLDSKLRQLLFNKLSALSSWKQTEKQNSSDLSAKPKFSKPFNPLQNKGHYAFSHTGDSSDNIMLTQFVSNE
Procedure, shortened: (§1)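 G protein activation by synthetic stalk peptides, read as GFP2-to-RLuc8 emission ratio from the fifth of five successive readings. Cells: HEK293F expressing receptor (WT or mutant) with GαsS-RLuc8 or Gαi1-RLuc8 plus Gβ3 and Gγ9-GFP2 (2:1:1:1). Pre-incubated 30 min at 37 °C; substrate coelenterazine 400a.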

ADGRF1 [2] = target: T2, ADGRF1 (Homo sapiens, UniProt Q5T601, G702Y); conditions: ADGRF1 G702^4.45bY, n = 3
T2 construct: Flag (N); expressed in transfected cells; host or cells: HEK293F
T2 sequence (Q5T601 20-910 G702Y): as the sequence (Q5T601 20-910 F672A) above, with A653F, G683Y counted along it
Procedure, shortened: as §1

ADGRF1 [3] = target: T3, ADGRF1 (Homo sapiens, UniProt Q5T601, H820A); conditions: ADGRF1 H820^7.39bA
T3 construct: Flag (N); expressed in transfected cells; host or cells: HEK293F
T3 sequence (Q5T601 20-910 H820A): as the sequence (Q5T601 20-910 F672A) above, with A653F, H801A counted along it
Procedure, shortened: as §1

ADGRF1 [4] = target: T4, ADGRF1 (Homo sapiens, UniProt Q5T601, L681H); conditions: ADGRF1 L681^3.53bH
T4 construct: Flag (N); expressed in transfected cells; host or cells: HEK293F
T4 sequence (Q5T601 20-910 L681H): as the sequence (Q5T601 20-910 F672A) above, with A653F, L662H counted along it
Procedure, shortened: as §1

ADGRF1 [5] = target: T5, ADGRF1 (Homo sapiens, UniProt Q5T601, L769A); conditions: ADGRF1 L769^5.61bA
T5 construct: Flag (N); expressed in transfected cells; host or cells: HEK293F
T5 sequence (Q5T601 20-910 L769A): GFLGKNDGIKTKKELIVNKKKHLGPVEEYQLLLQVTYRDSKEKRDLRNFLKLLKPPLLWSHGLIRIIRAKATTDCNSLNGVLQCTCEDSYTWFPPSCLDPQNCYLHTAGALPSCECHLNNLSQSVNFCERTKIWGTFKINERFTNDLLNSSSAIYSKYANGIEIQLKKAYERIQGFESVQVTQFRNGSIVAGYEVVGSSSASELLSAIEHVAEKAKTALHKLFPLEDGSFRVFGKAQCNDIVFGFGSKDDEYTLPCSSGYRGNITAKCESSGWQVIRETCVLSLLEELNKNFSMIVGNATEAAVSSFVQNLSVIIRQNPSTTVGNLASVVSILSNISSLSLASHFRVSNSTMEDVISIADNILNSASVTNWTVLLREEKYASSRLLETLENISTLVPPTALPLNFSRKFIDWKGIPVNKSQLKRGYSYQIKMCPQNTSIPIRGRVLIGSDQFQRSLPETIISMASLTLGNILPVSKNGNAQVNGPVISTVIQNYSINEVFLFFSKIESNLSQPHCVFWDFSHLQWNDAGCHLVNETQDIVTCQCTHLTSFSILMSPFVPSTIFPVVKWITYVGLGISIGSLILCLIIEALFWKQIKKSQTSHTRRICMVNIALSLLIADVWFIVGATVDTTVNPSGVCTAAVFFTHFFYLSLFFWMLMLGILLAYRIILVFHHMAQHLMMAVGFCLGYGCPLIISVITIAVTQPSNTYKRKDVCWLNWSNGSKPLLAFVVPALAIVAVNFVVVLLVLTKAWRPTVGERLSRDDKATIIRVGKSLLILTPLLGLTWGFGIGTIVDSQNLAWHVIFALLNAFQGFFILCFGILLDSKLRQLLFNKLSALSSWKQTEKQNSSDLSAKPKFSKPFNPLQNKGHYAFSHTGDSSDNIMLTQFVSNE
Procedure, shortened: as §1

ADGRF1 [6] = target: T6, ADGRF1 (Homo sapiens, UniProt Q5T601, L799A); conditions: ADGRF1 L799^6.48bA
T6 construct: Flag (N); expressed in transfected cells; host or cells: HEK293F
T6 sequence (Q5T601 20-910 L799A): as the sequence (Q5T601 20-910 F672A) above, with A653F, L780A counted along it
Procedure, shortened: as §1

ADGRF1 [7] = target: T7, ADGRF1 (Homo sapiens, UniProt Q5T601, V585A); conditions: ADGRF1 V585^1.36bA
T7 construct: Flag (N); expressed in transfected cells; host or cells: HEK293F
T7 sequence (Q5T601 20-910 V585A): as the sequence (Q5T601 20-910 F672A) above, with V566A, A653F counted along it
Procedure, shortened: as §1

[8] = n = 3, read-out: pEC50 (mean ± s.e.m.) (converted)

Emax (mean ± s.e.m.) (ADGRF1 [1]; n = 3): 72 ± 12 % of WT | EC50 (ADGRF1 [1]; [8]): 437 nM | pEC50 (ADGRF1 [2]): 5.93 | Emax (mean ± s.e.m.) (ADGRF1 [2]): 94 ± 16 % of WT | Emax (mean ± s.e.m.) (ADGRF1 [3]; n = 3): 126 ± 12 % of WT | EC50 (ADGRF1 [3]; [8]): 275 nM | Emax (mean ± s.e.m.) (ADGRF1 [4]; n = 4): 103 ± 13 % of WT | EC50 (ADGRF1 [4]; n = 4, read-out: pEC50 (mean ± s.e.m.) (converted)): 347 nM | Emax (mean ± s.e.m.) (ADGRF1 [5]; n = 3): 102 ± 12 % of WT | EC50 (ADGRF1 [5]; [8]): 302 nM | Emax (mean ± s.e.m.) (ADGRF1 [6]; n = 3): 109 ± 11 % of WT | EC50 (ADGRF1 [6]; [8]): 380 nM | Emax (mean ± s.e.m.) (ADGRF1 [7]; n = 3): 84 ± 8 % of WT | EC50 (ADGRF1 [7]; [8]): 437 nM
Sequence: TSFSILMSPFVP [pF1]
